Results taken from US20260008760A1, “DIPEPTIDYL PEPTIDASE 1 INHIBITORS AND USES THEREOF” (Insmed Incorporated, priority 2024, published 2026).
Read-outs that look alike come from different tables or passages of the source.

How the values were obtained:
human DPP1 enzyme = human DPP1 enzyme (Homo sapiens, UniProt P53634); assay: Human DPP1 Enzyme IC50 Assay; type: biochemical; design: was first proteolytically processed into its mature form using recombinant human cathepsin L; purchased R&D Systems
Chain of human DPP1 enzyme (P53634 25-134 limits assumed): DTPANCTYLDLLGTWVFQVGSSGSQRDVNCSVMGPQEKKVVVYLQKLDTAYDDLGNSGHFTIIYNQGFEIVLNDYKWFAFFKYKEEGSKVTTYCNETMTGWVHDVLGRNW
Chain of human DPP1 enzyme (P53634 231-394 limits assumed): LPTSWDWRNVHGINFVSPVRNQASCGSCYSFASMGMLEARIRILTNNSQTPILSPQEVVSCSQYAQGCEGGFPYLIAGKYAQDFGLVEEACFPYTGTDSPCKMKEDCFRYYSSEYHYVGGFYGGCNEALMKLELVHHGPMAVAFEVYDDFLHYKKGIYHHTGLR
Chain of human DPP1 enzyme (P53634 395-463 limits assumed): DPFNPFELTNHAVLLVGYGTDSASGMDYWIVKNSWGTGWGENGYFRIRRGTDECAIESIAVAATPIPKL
Experimental: Example 97. Human DPP1 Enzyme IC50 Assay
Recombinant human DPP1 enzyme (R&D Systems; Minneapolis, MN) was first proteolytically processed into its mature form using recombinant human cathepsin L (R&D Systems) in a buffer consisting of 20 mM citric acid pH 4.5, 150 mM NaCl, 1 mM EDTA and 10 mM DTT. Test articles were applied to activated human DPP1 enzyme in Assay Buffer (25 mM MES pH 6.0, 50 mM NaCl, 5 mM DTT) in a total reaction volume of 125 μL. 25 μL of compound in Assay Buffer plus 5% DMSO was first added to 50 μL of activated human DPP1 enzyme at a concentration of 1 ng/μL and allowed to pre-incubate for 10 minutes at 37° C. after which 50 μL of 1000 μM H-Gly-Arg-AMC substrate (Bachem; St. Torrance, CA) was added, giving final substrate concentration of 400 μM and a final DMSO concentration of 1%. Substrate cleavage was measured for 90 minutes at 37° C., with fluorescence at Excitation/Emission 350/450 nm measured every 5 minutes. DPP1 concentration was interpolated based on its activity relative to a standard curve of activated human recombinant DPP1 enzyme. IC50 values for each compound were calculated via the XLFit (IDBS Version 5.3.1.3) Add-On to Microsoft Excel using the four parameter fit equation y={A+[(B−A)]/[1+((C/x)^D)]}, which appears as equation number 205 (4 Parameter Logistic Model or Sigmoidal Dose-Response Model) in XLFit. Default constraints were used for each Parameter. IC50 was defined as the compound concentration at which 50% of enzyme activity was inhibited when compared to the no-compound control.

DPP1 in HL-60 cells = DPP1 in HL-60 cells (Homo sapiens, UniProt P53634); assay: DPP1 Cell IC50 assay; type: cell-based; design: host or cells: HL-60 cells; settings: 60 min pre-incubation, H-Gly-Phe-AFC substrate, average of n runs
Chain of DPP1 in HL-60 cells (P53634 25-463): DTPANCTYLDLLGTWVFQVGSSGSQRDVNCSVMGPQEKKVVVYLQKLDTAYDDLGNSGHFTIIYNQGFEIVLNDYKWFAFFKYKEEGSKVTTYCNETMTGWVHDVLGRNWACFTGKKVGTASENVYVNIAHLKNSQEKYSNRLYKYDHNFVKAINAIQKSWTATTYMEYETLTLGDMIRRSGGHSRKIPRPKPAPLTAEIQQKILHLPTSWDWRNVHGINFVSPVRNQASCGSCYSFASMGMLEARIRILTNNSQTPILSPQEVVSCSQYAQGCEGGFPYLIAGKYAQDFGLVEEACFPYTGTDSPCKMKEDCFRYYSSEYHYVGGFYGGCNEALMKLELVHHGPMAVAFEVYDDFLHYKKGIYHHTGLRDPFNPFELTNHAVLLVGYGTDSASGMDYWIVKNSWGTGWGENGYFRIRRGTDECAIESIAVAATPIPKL
Experimental: Example 99. DPP1 Cell IC50 assay
HL-60 cells (ATCC; Manassas, VA) were maintained in RPMI-1640 supplemented with 20% heat-inactivated FBS and 1× Antibiotic Antimycotic (Cytiva; Marlborough, MA). Media was changed every three to four days and cells were not allowed to exceed 1×10^6 cells per mL. Prior to assay, cells were collected by centrifugation at 500 rcf for 3 minutes, resuspended in PBS and counted. Cells were diluted in PBS to a concentration of 5×10^5 live cells per mL and transferred to black 96-well plates for assay, 60 μL per well. Test articles were diluted in PBS plus 0.5% DMSO, and 20 μL was added to each assay well. Compound was allowed to pre-incubate with cells with gentle shaking at 100 rpm for 60 minutes at 37° C. in a cell culture incubator maintained at 5% CO2, after which 20 μL of 500 μM H-Gly-Phe-AFC substrate (MP Biomedicals; Solon, OH) was added to each well. Plates were returned to the incubator with shaking at 100 rpm for 30 minutes, after which fluorescence was measured at Excitation/Emission 400/505 nm. % Inhibition was calculated from RFU values compared to control cell wells that received only PBS plus 0.5% DMSO. IC50 values for each compound were calculated via the XLFit (IDBS Version 5.3.1.3) Add-On to Microsoft Excel using the four parameter fit equation y=(A+((B−A)/(1+((C/x)^D)))), which appears as equation number 205 (4 Parameter Logistic Model or Sigmoidal Dose-Response Model) in XLFit. IC50 was defined as the compound concentration at which 50% of enzyme activity was inhibited when compared to the no-compound control.

[1] = activated recombinant human DPP1, 400 μM H-Gly-Arg-AMC, 10 minutes pre-incubation at 37° C., pH 6.0, average of n runs, read-out: Avg. IC50 (Human DPP1 enzyme IC50 value ranges)
[2] = read-out: Avg. IC50 (DPP1 Cell IC50 value ranges)
[3] = Avg. IC50 (DPP1 Cell IC50 value ranges)

Row | Structure (SMILES) | IC50 (human DPP1 enzyme; [1]) [nM] | IC50 (DPP1 in HL-60 cells; [2]) [nM] | IC50 (human DPP1 enzyme) [nM] | IC50 (DPP1 in HL-60 cells; [3]) [nM]
1 | COC1CNC[C@@H](C(=O)N[C@H](C#N)Cc2ccc(-c3ccc4c(F)nn(C)c4c3)cc2F)OC1 (stereo partly shown) [Compound A164] | < 5 | < 1 |  | 
2 | C[C@@H]1NC[C@@H](C(=O)N[C@H](C#N)Cc2cnc(-c3ccc4c(F)nn(C)c4c3)s2)OC[C@@H]1O [Compound A171] | > 15 | > 2.5 |  | 
3 | N#C[C@H](Cc1ccc(-c2ccc3c(c2)C2(CCN(C4COC4)CC2)COC3)cc1)NC(=O)[C@@H]1CNCCCO1 [Compound I5] | 5 to 15 | > 2.5 |  | 
4 | Cn1c(=O)oc2cc3c(cc21)-c1cc(F)c(CC(C#N)NC(=O)[C@@H]2CNCCCCO2)cc1OC3 (single isomer, unassigned) [Compound C6] | > 15 | > 2.5 |  | 
5 | N#C[C@H](Cc1ccc(-c2ccc3c(c2)C[C@]2(CCN(c4nccs4)C2)OC3)cc1)NC(=O)[C@@H]1CNCCCO1 [Compound I14] | > 15 | > 2.5 |  | 
6 | CO[C@H]1CCO[C@H](C(=O)N[C@H](C#N)Cc2ccc(-c3cc4c(C)nc(C)cn4c3)cc2F)CNC1 [Compound A48, (2S,6S)—N-[(1S)-1-cyano-2-(4-{1,3-dimethylpyrrolo[1,2-a]pyrazin-7-yl}-2-fluorophenyl)ethyl]-6-methoxy-1,4-oxazocane-2-carboxamide] | 5 to 15 | 1 to 2.5 |  | 
7 | Cn1c(=O)oc2cc3c(cc21)-c1cc(F)c(C[C@H](C#N)NC(=O)[C@@H]2CNCCCO2)cc1OC3 [Compound C1-A] | > 15 | > 2.5 |  | 
8 | CN1C(=O)CCc2cc(-c3ccc(C[C@@H](C#N)NC(=O)[C@@H]4CNCC[C@@H](F)CO4)cc3)ccc21 [Compound A149] | > 15 | 1 to 2.5 |  | 
9 | CO[C@H]1CCO[C@H](C(=O)NC(C#N)Cc2cc3cc(-c4cc5c(C)nc(C)cn5c4)ccc3s2)CNC1 (single isomer, unassigned) [Compound A46] | > 15 | > 2.5 |  | 
10 | Cc1ncc(C)n2cc(-c3ccc(C[C@@H](C#N)NC(=O)[C@@H]4CNCCCO4)cc3)cc12 [Compound A63] | > 15 | > 2.5 |  | 
11 | C[C@@H]1NC[C@@H](C(=O)N[C@H](C#N)Cc2ccc(-c3ccc4c(c3)CCC(=O)N4C)cc2F)OC[C@@H]1O [Compound A154] | 5 to 15 | 1 to 2.5 |  | 
12 | N#C[C@H](Cc1ccc2c(c1)OCc1ccc(C3CCNC3)cc1-2)NC(=O)[C@@H]1CNCCCO1 (stereo partly drawn) [Compound B1, (2S)—N-[(1S)-1-cyano-2-[9-(pyrrolidin-3-yl)-6H-benzo[c]chromen-3-yl]ethyl]-1,4-oxazepane-2-carboxamide] |  |  | > 15 | > 2.5
13 | Cc1cn2cc(-c3cc4sc(C[C@@H](C#N)NC(=O)[C@@H]5CNCCCCO5)cc4s3)cc2c(C)n1 (single isomer, unassigned) [Compound A30] | > 15 | > 2.5 |  | 
14 | COC1CNC[C@@H](C(=O)N[C@H](C#N)Cc2ccc(-c3ccc4nnn(C)c4c3)cc2)OC1 (single isomer, unassigned) [Compound H12-A] | > 15 | > 2.5 |  | 
15 | CN1C(=O)CCc2cc(-c3ccc(C[C@@H](C#N)NC(=O)[C@@H]4CNCC[C@@H](F)CO4)c(F)c3)ccc21 [Compound A155] | 5 to 15 | 1 to 2.5 |  | 
16 | CO[C@H]1CCO[C@H](C(=O)N[C@H](C#N)Cc2ccc(-c3ccc4oc(=O)n(C)c4c3)s2)CNC1 [Compound F3, (2S,6S)—N-[(1S)-1-cyano-2-[5-(3-methyl-2-oxo-1,3-benzoxazol-5-yl)thiophen-2-yl]ethyl]-6-methoxy-1,4-oxazocane-2-carboxamide] | > 15 | > 2.5 |  | 
17 | N#C[C@H](Cc1ccc(-c2ccc3c(c2)[C@]2(CCCN(c4nccs4)C2)COC3)cc1)NC(=O)[C@@H]1CNCCCO1 [Compound I20] | > 15 | > 2.5 |  | 
18 | N#C[C@H](Cc1ccc(NC(=O)c2csc(-c3cscn3)n2)cc1)NC(=O)[C@@H]1CNCCCO1 [Compound D7, (2S)—N-[(1S)-1-cyano-2-{4-[2-(1,3-thiazol-4-yl)-1,3-thiazole-4-amido]phenyl}ethyl]-1,4-oxazepane-2-carboxamide] | > 15 | > 2.5 |  | 
19 | CN1CCCc2ncc(-c3ccc(C[C@@H](C#N)NC(=O)[C@@H]4CNCCCO4)cc3)cc21 [Compound A40, (2S)—N-[(1S)-1-cyano-2-[4-(5-methyl-7,8-dihydro-6H-1,5-naphthyridin-3-yl)phenyl]ethyl]-1,4-oxazepane-2-carboxamide] | > 15 | > 2.5 |  | 
20 | CCc1sc(-c2ccc(C[C@@H](C#N)NC(=O)[C@@H]3CNCCCO3)cc2)nc1-c1cnn(C)c1 [Compound D8, (2S)—N-[(1S)-1-cyano-2-{4-[5-ethyl-4-(1-methylpyrazol-4-yl)-1,3-thiazol-2-yl]phenyl}ethyl]-1,4-oxazepane-2-carboxamide] | > 15 | > 2.5 |  | 
21 | N#Cc1ccc2c(c1)COc1c-2ccc(CC(C#N)NC(=O)[C@@H]2CNCCCO2)c1F (stereo partly drawn) [Compound B4, (2S)—N-(1-cyano-2-{8-cyano-4-fluoro-6H-benzo[c]chromen-3-yl}ethyl)-1,4-oxazepane-2-carboxamide] |  |  | > 15 | > 2.5
22 | N#C[C@H](Cc1ccc(-c2cnc3c(c2)COCCN3)cc1)NC(=O)[C@@H]1CNCCCO1 [Compound A9, (2S)—N-[(1S)-1-cyano-2-(4-{1H,2H,3H,5H-pyrido[2,3-e][1,4]oxazepin-7-yl}phenyl)ethyl]-1,4-oxazepane-2-carboxamide] | > 15 | > 2.5 |  | 
23 | CN1C(=O)C2(CCN(C3COC3)CC2)c2cc(-c3ccc(C[C@@H](C#N)NC(=O)[C@@H]4CNCCCO4)cc3)ccc21 [Compound 29, (2S)—N-[(1S)-1-cyano-2-{4-[1-methyl-1′-(oxetan-3-yl)-2-oxospiro[indole-3,4′-piperidin]-5-yl]phenyl}ethyl]-1,4-oxazepane-2-carboxamide] | > 15 | > 2.5 |  | 
24 | C[C@@H]1NC[C@@H](C(=O)N[C@H](C#N)Cc2ccc(-c3ccc4c(F)nn(C)c4c3)cc2F)OC[C@@H]1O [Compound A166] | 5 to 15 | 1 to 2.5 |  | 
25 | CO[C@@H]1CCNC[C@@H](C(=O)N[C@H](C#N)Cc2ncc(-c3ccc4c(n3)CCCN4)s2)OC1 [Compound A37, (2S,7R)—N—((S)-1-cyano-2-(5-(5,6,7,8-tetrahydro-1,5-naphthyridin-2-yl)thiazol-2-yl)ethyl)-7-methoxy-1,4-oxazocane-2-carboxamide] | > 15 | > 2.5 |  | 
26 | Cn1ccc2ncc(-c3ccc(C[C@@H](C#N)NC(=O)[C@@H]4CNCCCO4)cc3)cc21 [Compound A143] | > 15 | > 2.5 |  | 
27 | N#C[C@H](Cc1ccc(-c2ccc3c(c2)C2(CCN(c4nccs4)CC2)SC3)cc1)NC(=O)[C@@H]1CNCCCO1 [Compound I16] | > 15 | > 2.5 |  | 
28 | CO[C@@H]1CCNC[C@@H](C(=O)N[C@H](C#N)Cc2ccc(-c3cc4c(C)nc(C)cn4c3)s2)OC1 [Compound A34, (2S,7R)—N-[(1S)-1-cyano-2-(5-{1,3-dimethylpyrrolo[1,2-a]pyrazin-7-yl}thiophen-2-yl)ethyl]-7-methoxy-1,4-oxazocane-2-carboxamide] | > 15 | 1 to 2.5 |  | 
29 | N#C[C@H](Cc1ccc(-c2ccc3c(c2)C2(CCNCC2)C(=O)C3)cc1)NC(=O)[C@@H]1CNCCCO1 [Compound 22, (2S)—N-[(1S)-1-cyano-2-(4-{2-oxo-3H-spiro[indene-1,4′-piperidin]-6-yl}phenyl)ethyl]-1,4-oxazepane-2-carboxamide] | 5 to 15 | > 2.5 |  | 
